Test results as given in US9708368B2, “Linear peptide antibiotics” (priority 2012, dated 2017).
In brackets after ≈: the same amount, converted by molar mass. Square brackets hold non-standard residues; d marks the D form. Peptide text beside a SMILES is read from it. * marks the point of attachment. boroAla((+)-pinanediol) = C[C@H](N*)B1O[C@@H]2C[C@@H]3C[C@@H](C3(C)C)[C@]2(C)O1; Biphenylcarbonyl(4'-Bu) = CCCCc1ccc(-c2ccc(C(=O)*)cc2)cc1; X1 = C[C@H](N*)B1OC2C[C@@H]3C[C@@H](C3(C)C)[C@]2(C)O1; Benzoyl(4-(4-Cl-Ph)) = O=C(c1ccc(-c2ccc(Cl)cc2)cc1)*; Pro(4S-NH2) = N[C@@H]1CN[C@H](C(=O)O)C1; Benzoyl(2,3-diOH) = O=C(c1cccc(O)c1O)*; Dopa = N[C@@H](Cc1ccc(O)c(O)c1)C(=O)O; boroAla = C[C@H](N*)B(O)O; Aze = O=C(O)[C@@H]1CCN1; Dab = NCC[C@H](N)C(=O)O; Abu = CC[C@H](N)C(=O)O; Dap = NC[C@H](N)C(=O)O

How the values were obtained:
[1] = system: Escherichia coli strain MC4100 IMP-4213, which harbors an LptD mutation; conditions: Method B; E. coli MC4100 IMP-4213 (LptD mutation); 35° C., 22 hours
Procedure: In vitro antimicrobial activity of each compound was determined by measuring minimal inhibitor concentrations (MICs) using the broth micro-dilution technique as approved by the Clinical and Laboratory Standards Institute (CLSI). […] Bacterial inocula were prepared by scraping cells into 1 mL of testing media (cation adjusted Mueller Hinton Broth supplemented with 0.002% v/v Tween-80) and diluting to a final OD600 nm of 0.01.
Test compounds were prepared in DMSO at a concentration of 10 mg/ml. […] Bacterial inocula were added to the two fold serial dilutions of test compounds to a final density of OD OD600 nm of 0.0005 and incubated stationarily at 35° C. for 22 hours, after which the plates were examined visually.

E. coli SPase = E. coli SPase (Escherichia coli, UniProt P00803); experiment: Biochemical SPase activity assay (fluorogenic peptide substrate), E. coli enzyme
[2] = system: methicillin resistant Staphylococcus aureus (MRSA) strain USA300 (NRS384); conditions: Method B, 35° C., 22 hours
S. aureus SPase = S. aureus SPase (Staphylococcus aureus, UniProt P0A070); experiment: biochemical

Row | SMILES | MIC (μg/mL) E. coli [1] [µg/mL] | IC50 (E. coli SPase) [nM] | MIC (μg/mL) S. aureus [2] [µg/mL] | IC50 (S. aureus SPase) [nM]
1 | CCCCc1ccc(-c2ccc(C(=O)N[C@@H](CN)C(=O)N[C@@H](CN)C(=O)N[C@@H](C)C(=O)N[C@@H](CC(C)C)C(=O)N[C@@H](C)B3OC4C[C@@H]5C[C@@H](C5(C)C)[C@]4(C)O3)cc2)cc1 (stereo partly drawn) [Compound 170] ({Biphenylcarbonyl(4'-Bu)}-[Dap][Dap]AL-X1) | 0.4 (≈ 0.49 µM) | 10 | 2 (≈ 2.45 µM) | 530
2 | CCCCc1ccc(-c2ccc(C(=O)N[C@@H](CCN)C(=O)N[C@@H](CCN)C(=O)N[C@@H](C)C(=O)N[C@@H](CC(C)C)C(=O)N[C@@H](C)B3O[C@@H]4C[C@@H]5C[C@@H](C5(C)C)[C@]4(C)O3)cc2)cc1 [Compound 171] ({Biphenylcarbonyl(4'-Bu)}-[Dab][Dab]AL-{boroAla((+)-pinanediol)}) | 0.25 (≈ 0.296 µM) | 27 | 0.71 (≈ 0.841 µM) | 520
3 | CC(C)C[C@H](NC(=O)[C@H](C)NC(=O)[C@H](CN)NC(=O)[C@H](CN)NC(=O)c1ccc(-c2ccc(Cl)cc2)cc1)C(=O)N[C@@H](C)B1O[C@@H]2C[C@@H]3C[C@@H](C3(C)C)[C@]2(C)O1 [Compound 172] ({Benzoyl(4-(4-Cl-Ph))}-[Dap][Dap]AL-{boroAla((+)-pinanediol)}) | 8 (≈ 10.1 µM) | 20 | 8 (≈ 10.1 µM) | 750
4 | CC(C)C[C@H](NC(=O)[C@H](C)NC(=O)[C@H](CCN)NC(=O)[C@H](CCN)NC(=O)c1ccc(-c2ccc(Cl)cc2)cc1)C(=O)N[C@@H](C)B1OC2C[C@@H]3C[C@@H](C3(C)C)[C@]2(C)O1 (stereo partly drawn) [Compound 173] ({Benzoyl(4-(4-Cl-Ph))}-[Dab][Dab]AL-X1) | 2 (≈ 2.43 µM) | 69 | 2 (≈ 2.43 µM) | 550
5 | CCCCc1ccc(-c2ccc(C(=O)N[C@@H](CCCNC(=N)N)C(=O)N[C@H](C(=O)N[C@@H](C)C(=O)N[C@@H](CCCCN)C(=O)N[C@@H](C)B3O[C@@H]4C[C@@H]5C[C@@H](C5(C)C)[C@]4(C)O3)[C@@H](C)O)cc2)cc1 [Compound 174] ({Biphenylcarbonyl(4'-Bu)}-RTAK-{boroAla((+)-pinanediol)}) | 0.5 (≈ 0.546 µM) | 59 | 0.25 (≈ 0.273 µM) | 130
6 | C[C@H](NC(=O)[C@H](CCCCN)NC(=O)[C@H](C)NC(=O)[C@@H](NC(=O)[C@H](CN)NC(=O)c1ccc(-c2ccc(Cl)cc2)cc1)[C@@H](C)O)B(O)O [Compound 175] ({Benzoyl(4-(4-Cl-Ph))}-[Dap]TAK-boroAla) | 2 (≈ 2.9 µM) | 5.5 | 1.2 (≈ 1.74 µM) | 110
7 | CC(C)C[C@H](NC(=O)[C@H](C)NC(=O)[C@H](CN)NC(=O)[C@H](CN)NC(=O)c1ccc(-c2ccc(Cl)cc2)cc1)C(=O)N[C@@H](C)B(O)O [Compound 176] ({Benzoyl(4-(4-Cl-Ph))}-[Dap][Dap]AL-boroAla) | 8 (≈ 12.1 µM) | 56 | 16 (≈ 24.2 µM) | 1200
8 | CC(C)C[C@H](NC(=O)[C@H](C)NC(=O)[C@H](CCN)NC(=O)[C@H](CCN)NC(=O)c1ccc(-c2ccc(Cl)cc2)cc1)C(=O)N[C@@H](C)B(O)O [Compound 177] ({Benzoyl(4-(4-Cl-Ph))}-[Dab][Dab]AL-boroAla) | 2 (≈ 2.91 µM) | 70 | 2 (≈ 2.91 µM) | 640
9 | CCCCc1ccc(-c2ccc(C(=O)N[C@@H](CCN)C(=O)N[C@H](C(=O)N[C@@H](C)C(=O)N[C@@H](CCCCN)C(=O)N[C@@H](C)B(O)O)[C@@H](C)O)cc2)cc1 [Compound 178] ({Biphenylcarbonyl(4'-Bu)}-[Dab]TAK-boroAla) | 0.25 (≈ 0.344 µM) | 3.1 | 0.063 (≈ 0.0868 µM) | 58
10 | CCCCc1ccc(-c2ccc(C(=O)N[C@@H](CCN)C(=O)N[C@@H](CCN)C(=O)N[C@@H](C)C(=O)N[C@@H](CC(C)C)C(=O)N[C@@H](C)B(O)O)cc2)cc1 [Compound 179] ({Biphenylcarbonyl(4'-Bu)}-[Dab][Dab]AL-boroAla) | 0.5 (≈ 0.705 µM) | 22 | 2 (≈ 2.82 µM) | 570
11 | C[C@H](NC(=O)[C@H](CCCCN)NC(=O)[C@H](C)NC(=O)[C@H](CCCCN)NC(=O)[C@H](CN)NC(=O)c1ccc(-c2ccc(Cl)cc2)cc1)B(O)O [Compound 180] ({Benzoyl(4-(4-Cl-Ph))}-[Dap]KAK-boroAla) | 1 (≈ 1.39 µM) | 11 | 1 (≈ 1.39 µM) | 280
12 | CCCCc1ccc(-c2ccc(C(=O)N3C[C@@H](N)C[C@H]3C(=O)N3CCC[C@H]3C(=O)N[C@@H](C)C(=O)N[C@@H](CCCCN)C(=O)N[C@@H](C)B3OC4C[C@@H]5C[C@@H](C5(C)C)[C@]4(C)O3)cc2)cc1 (stereo partly drawn) [Compound 181] ({Biphenylcarbonyl(4'-Bu)}-[Pro(4S-NH2)]PAK-X1) | 0.5 (≈ 0.576 µM) | 5.4 | 0.4 (≈ 0.461 µM) | 18
13 | CCCCc1ccc(-c2ccc(C(=O)N[C@@H](CCN)C(=O)N[C@@H](CCN)C(=O)N[C@@H](C)C(=O)N[C@@H](CC)C(=O)N[C@@H](C)B3OC4C[C@@H]5C[C@@H](C5(C)C)[C@]4(C)O3)cc2)cc1 (stereo partly drawn) [Compound 182] ({Biphenylcarbonyl(4'-Bu)}-[Dab][Dab]A[Abu]-X1) | 0.71 (≈ 0.87 µM) | 35 | 4 (≈ 4.9 µM) | 1100
14 | CCCCc1ccc(-c2ccc(C(=O)N[C@@H](CCN)C(=O)N3CC[C@H]3C(=O)N[C@@H](C)C(=O)N[C@@H](CCCCN)C(=O)N[C@@H](C)B3O[C@@H]4C[C@@H]5C[C@@H](C5(C)C)[C@]4(C)O3)cc2)cc1 [Compound 183] ({Biphenylcarbonyl(4'-Bu)}-[Dab][Aze]AK-{boroAla((+)-pinanediol)}) | 1 (≈ 1.19 µM) | 20 | 1 (≈ 1.19 µM) | 610
15 | CCCCc1ccc(-c2ccc(C(=O)N[C@@H](CN)C(=O)N[C@@H](CCCCN)C(=O)N[C@@H](C)C(=O)N[C@@H](CCCCN)C(=O)N[C@@H](C)B3O[C@@H]4C[C@@H]5C[C@@H](C5(C)C)[C@]4(C)O3)cc2)cc1 [Compound 184] ({Biphenylcarbonyl(4'-Bu)}-[Dap]KAK-{boroAla((+)-pinanediol)}) | 0.13 (≈ 0.149 µM) | 5.9 | 0.25 (≈ 0.286 µM) | 300
16 | CCCCc1ccc(-c2ccc(C(=O)N[C@@H](CCN)C(=O)N[C@@H](CCN)C(=O)N[C@@H](C)C(=O)N[C@@H](CO)C(=O)N[C@@H](C)B3O[C@@H]4C[C@@H]5C[C@@H](C5(C)C)[C@]4(C)O3)cc2)cc1 [Compound 185] ({Biphenylcarbonyl(4'-Bu)}-[Dab][Dab]AS-{boroAla((+)-pinanediol)}) | 0.71 (≈ 0.868 µM) | 41 | 4 (≈ 4.89 µM) | 580
17 | CCCCc1ccc(-c2ccc(C(=O)N[C@@H](CN)C(=O)N[C@@H](CCCCN)C(=O)N[C@@H](C)C(=O)N[C@@H](CCCCN)C(=O)N[C@@H](C)B(O)O)cc2)cc1 [Compound 186] ({Biphenylcarbonyl(4'-Bu)}-[Dap]KAK-boroAla) | 0.13 (≈ 0.176 µM) | 6.9 | 0.13 (≈ 0.176 µM) | 370
18 | CCCCc1ccc(-c2ccc(C(=O)N[C@@H](CCN)C(=O)N[C@H](C(=O)N[C@@H](C)C(=O)N[C@@H](CCCCN)C(=O)N[C@@H](C)B3O[C@@H]4C[C@@H]5C[C@@H](C5(C)C)[C@]4(C)O3)[C@@H](C)O)cc2)cc1 [Compound 187] ({Biphenylcarbonyl(4'-Bu)}-[Dab]TAK-{boroAla((+)-pinanediol)}) | 2.8 (≈ 3.26 µM) | 170 | 8 (≈ 9.3 µM) | 2100
19 | CCCCc1ccc(-c2ccc(C(=O)N[C@@H](CCN)C(=O)N[C@@H](Cc3ccc(O)c(O)c3)C(=O)N[C@@H](C)C(=O)N[C@@H](CCCCN)C(=O)N[C@@H](C)B3O[C@@H]4C[C@@H]5C[C@@H](C5(C)C)[C@]4(C)O3)cc2)cc1 [Compound 188] ({Biphenylcarbonyl(4'-Bu)}-[Dab][Dopa]AK-{boroAla((+)-pinanediol)}) | 8 (≈ 8.53 µM) | 120 | 16 (≈ 17.1 µM) | 2900
20 | CCCCc1ccc(-c2ccc(C(=O)N[C@@H](CCN)C(=O)N[C@@H](Cc3ccc(O)c(O)c3)C(=O)N[C@@H](C)C(=O)N[C@@H](Cc3ccc(O)c(O)c3)C(=O)N[C@@H](C)B3OC4C[C@@H]5C[C@@H](C5(C)C)[C@]4(C)O3)cc2)cc1 (stereo partly drawn) [Compound 189] ({Biphenylcarbonyl(4'-Bu)}-[Dab][Dopa]A[Dopa]-X1) | 64 (≈ 64.7 µM) | 430 | >64 | 7700
21 | CCCCc1ccc(-c2ccc(C(=O)N[C@@H](CCN)C(=O)N[C@@H](CCN)C(=O)N[C@@H](C)C(=O)N[C@@H](CCCCNC(=O)c3cccc(O)c3O)C(=O)N[C@@H](C)B3OC4C[C@@H]5C[C@@H](C5(C)C)[C@]4(C)O3)cc2)cc1 (stereo partly drawn) [Compound 190] ({Biphenylcarbonyl(4'-Bu)}-[Dab][Dab]AK(Benzoyl(2,3-diOH))-X1) | >64 | 1300 | 64 (≈ 64.3 µM) | 64000
